Measured values taken from PubChem BioAssay (NCI).
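These data come from cells grown in 96-well plates and exposed to compound for 48 hours at five concentrations. TGI: total growth inhibition.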

Experiments:
Assay in all cases: NCI anticancer screen, dose series, 48 h
OVCAR-3 ovarian = system: OVCAR-3 ovarian
SK-MEL-2 melanoma = system: SK-MEL-2 melanoma
OVCAR-4 ovarian = system: OVCAR-4 ovarian
M14 melanoma = system: M14 melanoma
NCI/ADR-RES ovarian = system: NCI/ADR-RES ovarian
SK-MEL-28 melanoma = system: SK-MEL-28 melanoma
T-47D breast = system: T-47D breast
HT29 colon = system: HT29 colon
K-562 leukemia = system: K-562 leukemia
SF-295 CNS = system: SF-295 CNS
NCI-H522 lung = system: NCI-H522 lung
TK-10 renal = system: TK-10 renal
HS 578T breast = system: HS 578T breast
SK-OV-3 ovarian = system: SK-OV-3 ovarian
786-0 renal = system: 786-0 renal
LOX IMVI melanoma = system: LOX IMVI melanoma
PC-3 prostate = system: PC-3 prostate
RPMI-8226 leukemia = system: RPMI-8226 leukemia
SW-620 colon = system: SW-620 colon
OVCAR-8 ovarian = system: OVCAR-8 ovarian
SF-268 CNS = system: SF-268 CNS
COLO 205 colon = system: COLO 205 colon
UO-31 renal = system: UO-31 renal
IGROV1 ovarian = system: IGROV1 ovarian
A498 renal = system: A498 renal
MDA-MB-435 = system: MDA-MB-435
HCT-15 colon = system: HCT-15 colon
MALME-3M melanoma = system: MALME-3M melanoma
NCI-H226 lung = system: NCI-H226 lung
MOLT-4 leukemia = system: MOLT-4 leukemia
SK-MEL-5 melanoma = system: SK-MEL-5 melanoma
HCT-116 colon = system: HCT-116 colon
SNB-19 CNS = system: SNB-19 CNS
SF-539 CNS = system: SF-539 CNS
BT-549 breast = system: BT-549 breast
A549 NSCLC = system: A549 NSCLC
ACHN renal = system: ACHN renal
HOP-62 NSCLC = system: HOP-62 NSCLC
UACC-62 melanoma = system: UACC-62 melanoma
HOP-92 NSCLC = system: HOP-92 NSCLC
OVCAR-5 ovarian = system: OVCAR-5 ovarian
DU-145 prostate = system: DU-145 prostate
RXF 393 renal = system: RXF 393 renal
MDA-MB-231 breast = system: MDA-MB-231 breast
UACC-257 melanoma = system: UACC-257 melanoma
U251 CNS = system: U251 CNS
MDA-N = system: MDA-N
NCI-H460 lung = system: NCI-H460 lung
CAKI-1 renal = system: CAKI-1 renal
SNB-75 CNS = system: SNB-75 CNS
EKVX NSCLC = system: EKVX NSCLC
SN12C renal = system: SN12C renal
NCI-H23 lung = system: NCI-H23 lung
MCF7 breast = system: MCF7 breast
KM12 colon = system: KM12 colon
HCC-2998 colon = system: HCC-2998 colon

## CC(C)NCCC(O)c1cc2ccccc2o1 (stereo not drawn)
OVCAR-3 ovarian
  TGI: > 100 µM
SK-MEL-2 melanoma
  TGI: > 100 µM
OVCAR-4 ovarian
  TGI: > 100 µM
M14 melanoma
  TGI: > 100 µM
NCI/ADR-RES ovarian
  TGI: > 100 µM
SK-MEL-28 melanoma
  TGI: > 100 µM
T-47D breast
  TGI: > 100 µM
HT29 colon
  TGI: > 100 µM
K-562 leukemia
  TGI: > 100 µM
SF-295 CNS
  TGI: > 100 µM
NCI-H522 lung
  TGI: > 100 µM
TK-10 renal
  TGI: > 100 µM
HS 578T breast
  TGI: > 100 µM
SK-OV-3 ovarian
  TGI: > 100 µM
786-0 renal
  TGI: > 100 µM
LOX IMVI melanoma
  TGI: > 100 µM
PC-3 prostate
  TGI: > 100 µM
RPMI-8226 leukemia
  TGI: > 100 µM
SW-620 colon
  TGI: > 100 µM
OVCAR-8 ovarian
  TGI: > 100 µM
SF-268 CNS
  TGI: > 100 µM
COLO 205 colon
  TGI: > 100 µM
UO-31 renal
  TGI: > 100 µM
IGROV1 ovarian
  TGI: > 100 µM
A498 renal
  TGI: > 100 µM
MDA-MB-435
  TGI: > 100 µM
HCT-15 colon
  TGI: > 100 µM
MALME-3M melanoma
  TGI: > 100 µM
NCI-H226 lung
  TGI: > 100 µM
MOLT-4 leukemia
  TGI: 49.2 µM
SK-MEL-5 melanoma
  TGI: > 100 µM
HCT-116 colon
  TGI: > 100 µM
SNB-19 CNS
  TGI: > 100 µM
SF-539 CNS
  TGI: > 100 µM
BT-549 breast
  TGI: > 100 µM
A549 NSCLC
  TGI: > 100 µM
ACHN renal
  TGI: > 100 µM
HOP-62 NSCLC
  TGI: > 100 µM
UACC-62 melanoma
  TGI: > 100 µM
HOP-92 NSCLC
  TGI: > 100 µM
OVCAR-5 ovarian
  TGI: > 100 µM
DU-145 prostate
  TGI: > 100 µM
RXF 393 renal
  TGI: > 100 µM
MDA-MB-231 breast
  TGI: > 100 µM
UACC-257 melanoma
  TGI: > 100 µM
U251 CNS
  TGI: > 100 µM
MDA-N
  TGI: > 100 µM
NCI-H460 lung
  TGI: > 100 µM
CAKI-1 renal
  TGI: > 100 µM
SNB-75 CNS
  TGI: > 100 µM
EKVX NSCLC
  TGI: > 100 µM
SN12C renal
  TGI: > 100 µM
NCI-H23 lung
  TGI: > 100 µM
MCF7 breast
  TGI: > 100 µM
KM12 colon
  TGI: > 100 µM

## Cn1c2c(c3ccccc31)CC(=S)N1CCCC(CC2O)C1 (stereo not drawn)
SK-MEL-2 melanoma
  TGI: > 100 µM
OVCAR-4 ovarian
  TGI: > 100 µM
NCI/ADR-RES ovarian
  TGI: > 100 µM
SK-MEL-28 melanoma
  TGI: > 100 µM
T-47D breast
  TGI: > 100 µM
HT29 colon
  TGI: > 100 µM
K-562 leukemia
  TGI: > 100 µM
SF-295 CNS
  TGI: > 100 µM
NCI-H522 lung
  TGI: > 100 µM
TK-10 renal
  TGI: > 100 µM
HS 578T breast
  TGI: > 100 µM
SK-OV-3 ovarian
  TGI: > 100 µM
786-0 renal
  TGI: > 100 µM
LOX IMVI melanoma
  TGI: > 100 µM
PC-3 prostate
  TGI: > 100 µM
RPMI-8226 leukemia
  TGI: > 100 µM
SW-620 colon
  TGI: > 100 µM
OVCAR-8 ovarian
  TGI: > 100 µM
SF-268 CNS
  TGI: > 100 µM
COLO 205 colon
  TGI: > 100 µM
UO-31 renal
  TGI: > 100 µM
A498 renal
  TGI: > 100 µM
MDA-MB-435
  TGI: > 100 µM
HCT-15 colon
  TGI: > 100 µM
MALME-3M melanoma
  TGI: > 100 µM
HCC-2998 colon
  TGI: > 100 µM
NCI-H226 lung
  TGI: > 100 µM
SK-MEL-5 melanoma
  TGI: > 100 µM
HCT-116 colon
  TGI: > 100 µM
SNB-19 CNS
  TGI: > 100 µM
SF-539 CNS
  TGI: > 100 µM
BT-549 breast
  TGI: > 100 µM
A549 NSCLC
  TGI: > 100 µM
ACHN renal
  TGI: > 100 µM
UACC-62 melanoma
  TGI: > 100 µM
HOP-92 NSCLC
  TGI: > 100 µM
DU-145 prostate
  TGI: > 100 µM
MDA-MB-231 breast
  TGI: > 100 µM
UACC-257 melanoma
  TGI: > 100 µM
U251 CNS
  TGI: > 100 µM
MDA-N
  TGI: > 100 µM
NCI-H460 lung
  TGI: > 100 µM
CAKI-1 renal
  TGI: > 100 µM
SNB-75 CNS
  TGI: > 100 µM
SN12C renal
  TGI: > 100 µM
NCI-H23 lung
  TGI: > 100 µM
MCF7 breast
  TGI: > 100 µM
KM12 colon
  TGI: > 100 µM
